Assays:
Botrytis cinerea = assay: Test Example B: Gray mold on tomato; conditions: for Test B control value class: class of control value
Phytophthora infestans = assay: whole plant or invertebrate; type: in vivo; conditions: for Test F control value class: class of control value
Alternaia brassicicola = assay: Test Example C: Alternaria sooty spot on cabbage; type: in vivo; conditions: for Test C control value class: class of control value
Description: Seeds of a test plant (cabbage variety: Shikidori) were planted and cultivated until the cotyledons extended.
<Control Value> Control value=100{1−(n/3)}

Puccinia recondita = assay: Test Example E: Brown rust on wheat; type: in vivo; conditions: for Test E control value class: class of control value
[1] = system: Blumeria graminis f. sp. hordei; assay: Test Example D: Powdery mildew on barley; conditions: for Test D control value class: class of control value
Magnaporthe grisea = assay: whole plant or invertebrate; type: in vivo; conditions: for Test A control value class: class of control value
[2] = system: Colletotrichum orbiculare; assay: Test Example H: Anthracnose on cucumber; conditions: for Test H control value: 6 to 10 days after inoculation; for Test H control value class: Anthracnose on cucumber (Sagami Hanjiro), 2.5 ml/pot, assessed 6 to 10 days after inoculation
Description: Seeds of a test plant (cucumber variety: Sagami Hanjiro) were planted and cultivated until the first leaf appeared. In the test, the inventive compounds were dissolved into dimethyl sulfoxide-methanol mixture solution (volume ratio: 9/1), and the resultant solutions were diluted with well water to a concentration of 250 ppm to obtain the drug solutions. The drug solutions were sprayed to the test plant (2.5 ml/pot). After the drug solutions dried, a conidial suspension (2-4×10^5 conidia/ml) of Colletotrichum orbiculare was inoculated to the plant by spraying. After the inoculation, the plant was kept in a mist chamber at room temperature of 20 to 23° C. for about 24 hours to promote the onset of disease. The degrees of disease development were investigated 6 to 10 days after the inoculation, and the effectiveness of the drug solutions was evaluated.
In Test Examples described above, the degrees of disease development were evaluated in increments of 0.05 from 0 (as no incidence of disease) to 3 (as the degree of disease development in an untreated plant group). Further, control values were calculated using the following equation based on the degree of disease development.
n=Degree of disease development in each treated group
In the table, H: more than 50% control value, L: 50% or less control value, and nt: not tested.

Plasmopara viticola = assay: Test Example G: Downy mildew on vine; conditions: for Test G control value: 7 to 10 days after inoculation; for Test G control value class: Downy mildew on vine (Neomuscat), 2.5 ml/pot, assessed 7 to 10 days after inoculation
[3] = 250 ppm drug solution sprayed on test plant
[4] = 250 ppm drug solution sprayed (2.5 ml/pot), cucumber Sagami Hanjiro
[5] = 250 ppm drug solution sprayed (2.5 ml/pot), grape Neomuscat
[6] = Gray mold on tomato, control value class
[7] = Late blight on tomato, control value class
[8] = Alternaria sooty spot on cabbage, control value class
[9] = Brown rust on wheat, control value class
[10] = Powdery mildew on barley, control value class
[11] = Blast on rice, control value class
[12] = Anthracnose on cucumber, 250 ppm spray
[13] = Downy mildew on vine, 250 ppm spray
[14] = Alternaria sooty spot on cabbage

CC#CCOc1cc(F)c(-c2c(CCC)cc(Cl)c(=O)n2CC)c(F)c1 [compound 461]
L (50% or less control value): Test F control value (Phytophthora infestans; [3])
H (more than 50% control value): Test B control value (Botrytis cinerea; [3]) | Test C control value (Alternaia brassicicola; [3]) | Test E control value (Puccinia recondita; [3]) | Test D control value [1, 3] | Test A control value (Magnaporthe grisea; [3]) | Test H control value [2, 4] | Test G control value (Plasmopara viticola; [5])

CCCc1cc(Cl)c(=O)n(CC)c1-c1ccc(OC)cc1Cl [compound 320]
H (more than 50% control value): Test B control value (Botrytis cinerea; [6]) | Test F control value (Phytophthora infestans; [7]) | Test C control value (Alternaia brassicicola; [8]) | Test E control value (Puccinia recondita; [9]) | Test D control value [1, 10] | Test A control value (Magnaporthe grisea; [11]) | Test H control value [2, 12] | Test G control value (Plasmopara viticola; [13])

CCn1c(-c2c(F)cc(F)cc2F)c(C(C)(OC)C(C)C)ccc1=O (centres unmarked) [compound 479]
H (more than 50% control value): Test B control value (Botrytis cinerea; [3]) | Test C control value (Alternaia brassicicola; [3]) | Test E control value (Puccinia recondita; [3]) | Test D control value [1, 3] | Test A control value (Magnaporthe grisea; [3]) | Test H control value [2, 4] | Test G control value (Plasmopara viticola; [5])
L (50% or less control value): Test F control value (Phytophthora infestans; [3])

Cc1cc(Cl)c(=O)n(C)c1-c1c(F)cccc1F [compound 4]
L (50% or less control value): Test B control value class (Botrytis cinerea; Gray mold on tomato) | Test E control value class (Puccinia recondita; Brown rust on wheat) | Test D control value class ([1]; Powdery mildew on barley) | Test H control value class ([2]; 250 ppm spray) | Test G control value class (Plasmopara viticola; 250 ppm spray)
H (more than 50% control value): Test F control value class (Phytophthora infestans; Late blight on tomato) | Test C control value class (Alternaia brassicicola; [14]) | Test A control value class (Magnaporthe grisea; Blast on rice)

CCn1c(-c2c(F)cc(OC)cc2F)c(C(C)(O)CC(C)C)cc(Cl)c1=O (centres unmarked) [compound 153]
H (more than 50% control value): Test B control value class (Botrytis cinerea; Gray mold on tomato) | Test C control value class (Alternaia brassicicola; [14]) | Test E control value class (Puccinia recondita; Brown rust on wheat) | Test D control value class ([1]; Powdery mildew on barley) | Test H control value class ([2]; 250 ppm spray) | Test G control value class (Plasmopara viticola; 250 ppm spray)
L (50% or less control value): Test F control value class (Phytophthora infestans; Late blight on tomato) | Test A control value class (Magnaporthe grisea; Blast on rice)

CCC(=O)c1cc(Cl)c(=O)n(C)c1-c1c(F)cc(F)cc1F [compound 495]
L (50% or less control value): Test F control value (Phytophthora infestans; [3]) | Test A control value (Magnaporthe grisea; [3]) | Test H control value [2, 4] | Test G control value (Plasmopara viticola; [5])
H (more than 50% control value): Test B control value (Botrytis cinerea; [3]) | Test C control value (Alternaia brassicicola; [3]) | Test E control value (Puccinia recondita; [3]) | Test D control value [1, 3]

CCn1c(-c2ccc(F)cc2Br)c(CC(C)C)cc(Cl)c1=O [compound 200]
H (more than 50% control value): Test B control value (Botrytis cinerea; [6]) | Test F control value (Phytophthora infestans; [7]) | Test C control value (Alternaia brassicicola; [8]) | Test E control value (Puccinia recondita; [9]) | Test D control value [1, 10] | Test A control value (Magnaporthe grisea; [11]) | Test H control value [2, 12] | Test G control value (Plasmopara viticola; [13])

— patent US11147272B2, “Pyridone compounds and agricultural and horticultural fungicides comprising the same as active ingredients” (MITSUI CHEMICALS AGRO, INC., priority 2017, dated 2021)
